In patent US20230250096A1, “SUBSTITUTED PHENYL-1H-PYRROLO[2,3-c] PYRIDINE DERIVATIVES” (Janssen Pharmaceutica NV, priority 2021, published 2023) one finds IC50 data, which are given here for 20 compounds.

The assay relates to OCI-AML3 cells. The assay is described as follows: Proliferation assay (spheroid confluence, 8 days), OCI-AML3. In kind it is cell-based, human. The following applies: read-out: spheroid assay_OCI-AML3 IC50. The protocol: The anti-proliferative effect of menin/MLL protein/protein interaction inhibitor test compounds was assessed in human leukemia cell lines. The cell line MOLM14 harbors a MLL translocation and expresses the MLL fusion protein MLL-AF9, respectively, as well as the wildtype protein from the second allele. OCI-AML3 cells that carry the NPM1c gene mutation were also tested. […] KO-52 was used as a control cell line containing two MLL (KMT2A) wildtype alleles in order to exclude compounds that display general cytotoxic effects.
MOLM14 cells were cultured in RPMI-1640 (Sigma Aldrich) supplemented with 10% heat-inactivated fetal bovine serum (HyClone), 2 mM L-glutamine (Sigma Aldrich) and 50 μg/ml gentamycin (Gibco). KO-52 and OCI-AML3 cell lines were propagated in alpha-MEM (Sigma Aldrich) supplemented with 20% heat-inactivated fetal bovine serum (HyClone), 2 mM L-glutamine (Sigma Aldrich) and 50 μg/ml gentamycin (Gibco).
In order to assess the anti-proliferative effects, 200 MOLM14 cells, 200 OCI-AML3 cells or 300 KO-52 cells were seeded in 200 μl media per well in 96-well round bottom, ultra-low attachment plates (Costar, catalogue number 7007). Cell seeding numbers were chosen based on growth curves to ensure linear growth throughout the experiment. Test compounds were added at different concentrations and the DMSO content was normalized to 0.3%. Cells were incubated for 8 days at 37° C. and 5% CO2. Spheroid like growth was measured in real-time by live-cell imaging (IncuCyteZOOM, Essenbio, 4×objective) acquiring images at day 8. Confluence (%) as a measure of spheroid size was determined using an integrated analysis tool.
In order to determine the effect of the test compounds over time, the confluence in each well as a measure of spheroid size, was calculated. Confluence of the highest dose of a reference compound was used as baseline for the LC (Low control) and the confluence of DMSO treated cells was used as 0% cytotoxicity (High Control, HC).
Absolute IC50 values were calculated as percent change in confluence as follows:
LC=Low Control: cells treated with e.g. 1 μM of the cytotoxic agent staurosporin, or e.g. cells treated with a high concentration of an alternative reference compound
HC=High Control: Mean confluence (%) (DMSO treated cells)
% Effect=100−(100*(Sample−LC)/(HC−LC))
GraphPad Prism (version 7.00) was used to calculate the IC50. Dose-response equation was used for the plot of % Effect vs Log10 compound concentration with a variable slope and fixing the maximum to 100% and the minimum to 0%.

Setting [1] is: Homo sapiens, OCI-AML-3, OCI-AML3.

SMILES strings stand for the structures. Like-named read-outs stand apart in the source and are kept apart here.

Broadly, the IC50 is the concentration at which inhibition is half-maximal. For `Cc1cncc2c1c(C[C@@H]1CCN(C[C@H]3CCNC(=O)CC3)C1)cn2-c1ccc(F)cc1C(=O)N1[C@H](C)CC[C@H]1C` (single isomer, unassigned) [Compound 352a], the IC50 under setting [1] was 11 nM.
Take `CC(=O)N1CCC(N2CC[C@H](Cc3cn(-c4ccc(F)cc4C(=O)N(C)C(C)C)c4cncc(C)c34)C2)C(C)C1` (single isomer, unassigned) [Compound 137a]: the concentration for half-maximal inhibition (IC50) under setting [1] came to 23 nM.
In the case of `Cc1cncc2c1c(C[C@@H]1CCN([C@@H](CO)C3CCCOC3)C1)cn2-c1ccc(F)cc1C(=O)N(C)C(C)C` (single isomer, unassigned) [Compound 198a], the IC50 under setting [1] amounted to 15 nM.
Same read-out and setting: the same measure for `CNC(=O)[C@H]1CC[C@H](CN2CC([C@H](C)c3cn(-c4ccc(F)cc4C(=O)N(C)C(C)C)c4cncc(C)c34)C2)CC1` (single isomer, unassigned) [Compound 164b]: 12 nM.
Consider `Cc1cncc2c1c(CC1CCN(CC3CCC(=O)N(C)CC3)C1)cn2-c1ccc(F)cc1C(=O)N(C)C(C)C` (single isomer, unassigned) [Compound 184a], for which, where the note is “OCI-AML3”, the IC50 amounted to 26 nM.
With `CN=S(=O)(c1cc(F)ccc1-n1cc(CC2CCN(CC3CCOCC3)C2)c2c(C)cncc21)C(C)C` (single isomer, unassigned) [Compound 77b], the IC50 under setting [1] turned out to be 128 nM.
Still for that read-out and setting: the same measure for `Cc1cncc2c1c(C[C@@H]1CCN(C[C@@H]3CCNC(=O)CC3)C1)cn2-c1ccc(F)cc1C(=O)N1[C@H](C)CC[C@H]1C` (single isomer, unassigned) [Compound 352b]: 263 nM.
In the case of `Cc1cncc2c1c(C[C@@H]1CCN(CC3CCNC(=O)CC3)C1)cn2-c1ccc(F)cc1C(=O)N1CCC[C@H]1C` (single isomer, unassigned) [Compound 353a], the IC50 (OCI-AML3) amounted to 11 nM.
For the compound `Cc1cncc2c1c(CC1CCN(CC3CCN(C(=O)[C@H](C)O)CC3)C1)cn2-c1ccc(F)cc1C(=O)N(C)C(C)C` (single isomer, unassigned) [Compound 86], the IC50 under setting [1] came to 23 nM.
With `CC(=O)N1CCC(C(C)N2CCC(Cc3cn(-c4ccc(F)cc4C(=O)N(C)C(C)C)c4cncc(C)c34)C2)CC1` (single isomer, unassigned) [Compound 116a], under setting [1], the IC50 was 9 nM.
Still for that read-out and setting: the same measure for `COCC(=O)N1CCC(CN2CC[C@@H](Cc3cn(-c4ccc(F)cc4C(=O)N(C)C(C)C)c4cncc(C)c34)C2)CC1` (single isomer, unassigned) [Compound 136]: 54 nM; for `Cc1cncc2c1c(C[C@@H]1CCN(CC3CCN(C(=O)C(C)C)CC3)C1)cn2-c1ccc(F)cc1C(=O)N1CCC[C@H]1CO` [Compound 328]: 52 nM.
Same read-out and setting: the same measure for `CC(=O)N1CCC(CN2CCC(Cc3cn(-c4ccc(F)cc4C(=O)N(C)C(C)C)c4cncc(C)c34)C2C)CC1` (centres unmarked) [Compound 228]: 11 nM; for `Cc1cncc2c1c(C[C@@H]1CCN([C@H](CO)C3CCCOC3)C1)cn2-c1ccc(F)cc1C(=O)N(C)C(C)C` (single isomer, unassigned) [Compound 198b]: 156 nM.
For `Cc1cncc2c1c(CC1CCN(CC3CCN(C(=O)C(C)(C)O)CC3)C1)cn2-c1ccc(F)cc1C(=O)N(C)C(C)C` (single isomer, unassigned) [Compound 125], under setting [1], the IC50 stood at 12 nM.
With `Cc1cncc2c1c(CC1CCN(CC3CCN(C(=O)[C@@H](C)O)CC3)C1)cn2-c1ccc(F)cc1C(=O)N(C)C(C)C` (single isomer, unassigned) [Compound 85], under setting [1], the IC50 amounted to 22 nM.
Take `CC(=O)N1CCC(C)(CN2CC(Cc3cn(-c4ccc(F)cc4C(=O)N(C)C(C)C)c4cncc(C)c34)C2)CC1` [Compound 84]: under setting [1], the IC50 is 120 nM.
With `Cc1cncc2c1c(CC1CCN(CC3CCC(=O)N(C)CC3)C1)cn2-c1ccc(F)cc1C(=O)N(C)C(C)C` (single isomer, unassigned) [Compound 184b], the IC50 (OCI-AML3) is 138 nM.
On to `CC(=O)NC1CCC(N2CC[C@@H](Cc3cn(-c4ccc(F)cc4C(=O)N(C)C(C)C)c4cncc(C)c34)C2)CC1` (some centres unmarked) [Compound 201], for which the IC50 under setting [1] came out at 35 nM.
Still for that read-out and setting: the same measure for `CC(=O)N1CCC(N2CC[C@H](Cc3cn(-c4ccc(F)cc4C(=O)N(C)C(C)C)c4cncc(C)c34)C2)CC1` (single isomer, unassigned) [Compound 81]: 100 nM.
